Experiments:
[1] = molecular target: T1, NK1 receptor (Homo sapiens, UniProt P25103); test: Antagonism of NK1 receptor mediated (SP-induced) phosphatidylinositol turnover in UC11 cells; type: cell-based
T1 construct: endogenous in cells; host or cells: UC11 cells
Method: (§1) ANTAGONISM OF NK1 AND NK2 RECEPTOR MEDIATED PHOSPHATID[…]
(§2) Tachykinin-mediated inositol phosphate accumulation was measured in UC11 or SKLKB82#3 cells in the presence and absence of NK1 or NK2 receptor antagonists, respectively. Tissues were incubated in Krebs-Henseleit buffer at 37° C. with 95% O2 -5% CO2 gassing. Tissues were then incubated with fresh buffer containing 100 μCi of myo-[2-^3 H(N)] inositol at 37° C. for 60 min with gentle gassing. After washing twice in 5 ml room temperature buffer containing 10 mM LiCl, tissues were incubated for 30 min at room temperature with a buffer change at 15 min. Buffer was removed and Krebs-Henseleit buffer (containing 40 μg/ml bacitracin, 4 μg/ml each of leupeptin and chymostatin, 0.1% bovine serum albumin and 10 mM each of thiorphan and LiCl) added. After 15 min, SP was added to UC11 cells or NKA to SKLKB82#3 cells at various concentrations to start the reaction. After incubation for 60 min at room temperature the reaction was terminated by addition of 930 μl chloroform: methanol (1:2 by volume) to each tube, followed by 310 μl chloroform and 310 μl doubly distilled water. Samples were vortexed, centrifuged, and 0.9 ml of the aqueous (top) phase removed and added to 2 ml ddH2 O. The mixture was vortexed and loaded onto a 50% Bio-Rad AG 1-X8 (formate form, 100-200 mesh) exchange column (Bio-Rad Laboratories, Hercules, Calif.). The columns were washed, in order, with: 1) 10 ml doubly distilled water, 2) 5 ml of 5 mM disodium tetraborate/60 mM sodium formate, and 3) 5 ml of 1M ammonium formate/0.1M formic acid. The third elution was collected and 1 ml counted in 7 ml scintillation fluid. A 50 μl aliquot of the organic (bottom) phase was removed, dried in a scintillation vial and counted in 7 ml scintillation fluid.
(§3) The ratio of DPM in the aqueous phase aliquot (total inositol phosphates) to the DPM in the 50 μl organic phase aliquot (total [^3 H]inositol incorporated) was calculated for each sample. Data are expressed as a percent of agonist-induced accumulation of [^3 H]-inositol phosphates over basal levels. The ratios in the presence of test compound and/or standards were compared to the ratios for control samples (i.e. no stimulating agonist). Dose-response graphs were constructed and the abilities of the test compounds to inhibit tachykinin-induced phosphatidyinositol turnover determined with the aid of a computer program. […] Data is expressed as percent stimulation of total inositol phosphate accumulation over basal levels and normalized to the maximum response produced by SP. […] Schild analysis is performed using dose response curves (such as those presented in FIGS. 1a and 1b) to obtain a value indicative of the strength of a competitive antagonist and is expressed as the pA2, which is the negative logarithm of the molar concentration of antagonist which reduces the effect of a dose of agonist to one-half of that expected at the dose of agonist.

[2] = molecular target: NK1 receptor (Cavia porcellus, UniProt P30547); test: Antagonism of iodinated tachykinin (125I-substance P) binding to NK1 receptor in guinea pig lungs; set-up: tissue Keystone Biologicals, Cleveland, Ohio; host or cells: guinea pig lung membranes
Method: ANTAGONISM OF IODINATED TACHYKININ BINDING TO NK1 AND NK2 RECEPTORS BY PUTATIVE ANTAGONISTS
The NK1 receptor affinity of proposed tachykinin antagonists was evaluated in guinea pig lungs (Keystone Biologicals, Cleveland, Ohio), affinity for the NK2 receptor evaluated in HSKR-1 cells (which are mouse 3T3 fibroblasts expressing the human jejunal NK2 receptor) and NK-3 receptor affinity was evaluated in freshly collected guinea pig cerebral cortex. Tissues or cells were homogenized with a Polytron in 15 volumes of 50 mM Tris-HCl buffer (pH 7.4, 4° C.) and centrifuged. The pellet was resuspended in Tris-HCl buffer and was centrifuged; the pellet was washed twice by resuspension. The final pellet was resuspended at a concentration of 40 mg/ml for tissues (guinea pig lung and cerebral cortex) and 20 mg/ml for cells in incubation buffer and remained at room temperature for at least 15 min prior to use. Receptor binding was initiated by addition of 250 ul membrane preparation in duplicate to 0.1 nM of the following radioligands: ^125 I-Bolton Hunter Lys-3 labeled substance P; ^125 iodohistidyl-1-neurokinin A; and ^125 I-Bolton Hunter labeled Lys-4 eledoisin in a final volume of 500 ul of buffer containing 50 mM Tris-HCl (pH 7.4 at room temperature), 0.1% bovine serum albumin, 2 mM MnCl2, 40 ug/ml bacitracin, 4 µg/ml leupeptin and chymostatin, 1 μM thiorphan and various doses of the putative tachykinin antagonists. Incubations were performed at room temperature for 90 min (NK1 receptor assays) or 2 hr (NK2 and NK3 receptor assays); binding was terminated by addition of 50 mM Tris-HCl buffer (pH 7.4, 4° C.) and filtration under vacuum through GF/B filters presoaked with 0.1% polyethyleneimine (NK1 receptor assays) or 0.5% bovine serum albumin (NK2 and NK3 receptor assays). Filter bound radioactivity was quantitated in a gamma counter. Nonspecific binding was defined as binding in the presence of 1 μM substance P, neurokinin A, or eledoisin. Specific binding was calculated by subtracting nonspecific binding from total binding. Competition of iodinated SP, NKA, or eledoisin binding by test compounds or standards was expressed as a percentage of this maximum competition. IC50 values (concentration required to inhibit 50% of receptor binding) were generated for each of the test compounds by nonlinear regression using an iterative curve fitting program (GraphPAD Inplot, San Diego, Calif.).

[3] = molecular target: T2, NK2 receptor (Bos taurus, UniProt P05363); test: Antagonism of NK2 receptor mediated (NKA-induced) phosphatidylinositol turnover in SKLKB82#3 cells; type: cell-based
T2 construct: expressed in transfected cells; host or cells: SKLKB82#3 cells (murine B82 fibroblasts by own knowledge)
T2 sequence (P05363 1-384): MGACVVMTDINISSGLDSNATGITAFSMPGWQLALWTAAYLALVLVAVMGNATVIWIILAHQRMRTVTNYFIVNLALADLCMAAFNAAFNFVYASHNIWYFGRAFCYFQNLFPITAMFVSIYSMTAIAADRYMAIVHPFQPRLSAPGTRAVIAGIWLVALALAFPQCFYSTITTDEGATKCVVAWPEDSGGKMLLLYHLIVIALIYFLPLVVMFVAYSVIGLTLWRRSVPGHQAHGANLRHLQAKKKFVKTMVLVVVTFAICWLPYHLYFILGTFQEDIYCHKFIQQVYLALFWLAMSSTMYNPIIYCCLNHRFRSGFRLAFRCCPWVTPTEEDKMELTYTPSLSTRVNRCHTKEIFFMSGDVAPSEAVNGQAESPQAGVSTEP
Method: as §1, §2, §3

T1 sequence (P25103 whole entry): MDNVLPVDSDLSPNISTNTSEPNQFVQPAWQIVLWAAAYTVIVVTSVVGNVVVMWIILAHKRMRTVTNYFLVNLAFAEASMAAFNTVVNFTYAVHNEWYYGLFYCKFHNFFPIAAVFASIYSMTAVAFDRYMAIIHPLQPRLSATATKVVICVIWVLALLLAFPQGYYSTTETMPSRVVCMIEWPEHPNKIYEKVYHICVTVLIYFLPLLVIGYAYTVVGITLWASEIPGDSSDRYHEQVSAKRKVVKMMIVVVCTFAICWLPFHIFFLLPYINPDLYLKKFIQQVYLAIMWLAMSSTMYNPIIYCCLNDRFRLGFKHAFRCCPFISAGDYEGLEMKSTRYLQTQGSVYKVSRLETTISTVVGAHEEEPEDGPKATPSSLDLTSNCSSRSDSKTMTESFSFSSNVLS
NK1 receptor (Cavia porcellus, UniProt P30547), sequence (P30547 whole entry): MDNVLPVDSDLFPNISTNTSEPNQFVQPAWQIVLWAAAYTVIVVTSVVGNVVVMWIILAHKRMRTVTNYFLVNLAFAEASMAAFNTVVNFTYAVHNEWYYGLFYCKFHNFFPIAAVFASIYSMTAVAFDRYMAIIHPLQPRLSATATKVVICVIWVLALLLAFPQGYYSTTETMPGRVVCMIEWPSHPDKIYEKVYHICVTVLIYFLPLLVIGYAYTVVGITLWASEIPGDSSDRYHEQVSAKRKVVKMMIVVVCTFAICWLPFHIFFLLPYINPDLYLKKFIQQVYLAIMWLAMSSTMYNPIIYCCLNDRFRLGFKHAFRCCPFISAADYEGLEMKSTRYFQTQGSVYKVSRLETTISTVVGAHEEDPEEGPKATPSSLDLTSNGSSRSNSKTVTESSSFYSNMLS

COc1cc(C(=O)N2CCC(CCN3CCC(C(N)=O)(c4ccccc4)CC3)(c3ccc(Cl)c(Cl)c3)C2)cc(OC)c1OC (centres unmarked) [Example 3, 1-[2-[3-(3,4-dichloro-phenyl)-1-(3,4,5-trimethoxy-benzoyl)-pyrrolidin-3-yl]-ethyl]-4-phenyl-piperidine-4-carboxylic acid amide]
antagonism of SP induced PI turnover (in words, FIG. 1a) ([1]; UC11 cells): dose related antagonism | agonist activity, PI turnover in UC11 cells (in words) ([1]; compound alone): no agonist activity | affinity for NK1 receptors (in words) [2]: high affinity | antagonism of NKA induced PI turnover (in words, FIG. 1b) ([3]; SKLKB82#3 cells): dose related antagonism | agonist activity, PI turnover in SKLKB82#3 cells (in words) ([3]; compound alone): no agonist activity
